This note sets out measurements from ChEMBL document CHEMBL1157188, “Structure-activity relationship of truncated analogs of caprazamycins as potential anti-tuberculosis agents” (2008).

Converted amounts (≈) assume the structure as drawn.

The subject of the first experiment is Mycolicibacterium smegmatis. As to the kind of experiment: Antimicrobial activity against Mycobacterium smegmatis. The class given is functional.
The term MIC denotes the lowest concentration found to suppress growth. As for `CO[C@@H]1[C@@H](OC)[C@H](C)O[C@@H](OC(=O)C[C@@H](C)CC(=O)O[C@@H](CCCCCCCCCC(C)C)CC(=O)O[C@H]2CN(C)[C@@H]([C@H](O[C@@H]3O[C@H](CN)[C@@H](O)[C@H]3O)[C@H]3O[C@@H](n4ccc(=O)[nH]c4=O)[C@H](O)[C@@H]3O)C(=O)N(C)[C@@H]2C(=O)O)[C@@H]1OC`, the lowest concentration to inhibit growth (MIC) was 1.56 µg/mL (≈ 1.38 µM).
Same read-out and setting: the same measure for `CCCCCCCCCCCCCCCC(=O)O[C@H]1CN(C)[C@@H]([C@H](O[C@@H]2O[C@H](CN)[C@@H](O)[C@H]2O)[C@H]2O[C@@H](n3ccc(=O)[nH]c3=O)[C@H](O)[C@@H]2O)C(=O)N(C)[C@@H]1C(=O)O` [PALMITOYL CAPRAZOL]: 6.25 µg/mL (≈ 7.68 µM).

Another experiment deals with Mycobacterium tuberculosis. As to the kind of experiment: Antimicrobial activity against Mycobacterium tuberculosis H37Rv by almar blue assay. The experiment is classed as functional.
One may read the MIC50 as an inhibitory concentration at the 50% level, which refers to growth in some studies and to a panel of isolates in others. Low readings indicate greater potency, high ones weaker potency. `CCCCCCCCCCCCCCCC(=O)OC[C@H](NC(=O)[C@@H](N)[C@H](O[C@@H]1O[C@H](CN)[C@@H](O)[C@H]1O)[C@H]1O[C@@H](n2ccc(=O)[nH]c2=O)[C@H](O)[C@@H]1O)C(=O)O` had an MIC50 of 6.25 µg/mL (≈ 8.08 µM).
As to `CCCCCCCCCCCCCCCC(=O)O[C@H]1CN(C)[C@@H]([C@H](O)[C@H]2O[C@@H](n3ccc(=O)[nH]c3=O)[C@H](O)[C@@H]2O)C(=O)N(C)[C@@H]1C(=O)O`, the MIC50 was over 100 µg/mL.
On the same count and under the same terms, the same measure for `CCCCCCCCCCCCCCCC(=O)O[C@H]1CN(C)[C@@H]([C@@H](C)O[C@@H]2O[C@H](CN)[C@@H](O)[C@H]2O)C(=O)N(C)[C@@H]1C(=O)O`: over 100 µg/mL; for `CN1C[C@H](O)[C@@H](C(=O)O)N(C)C(=O)[C@@H]1[C@H](O[C@@H]1O[C@H](CN)[C@@H](O)[C@H]1O)[C@H]1O[C@@H](n2ccc(=O)[nH]c2=O)[C@H](O)[C@@H]1O` [CAPRAZOL]: over 100 µg/mL.
`CCCCCCCCCCCCCCCC(=O)O[C@H]1CN(C)[C@@H]([C@H](O[C@@H]2O[C@H](CN)[C@@H](O)[C@H]2O)[C@H]2O[C@@H](n3ccc(=O)[nH]c3=O)[C@H](O)[C@@H]2O)C(=O)N(C)[C@@H]1C(=O)O` [PALMITOYL CAPRAZOL] gave an MIC50 of 2.5 µg/mL (≈ 3.07 µM).
